From the supplement of paper PMC4862054

Legend:
Conditions in all cases: incubation time: 72 h
DU-4475 [1] = assay: normalised viability (% of control), CellTiter-Blue; higher = more viable cells (about 100 = DMSO control)
Summary of the method: (§1)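 Breast cancer cell lines in 20 µl suspension were seeded onto 384-well plates pre-loaded with compound dissolved in 5 µl medium, then incubated 72 h. CellTiter-Blue reagent (2.5 µl) was added for 2 h at 37 °C and fluorescence read at 560/590 nm. Each plate was normalised to vehicle (100) and a positive kill control (0), with Z'-factor quality control. The value is normalised viability at one listed concentration of the series.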

MDA-MB-436 [2] = assay: as above
Summary of the method: as §1

MDA-MB-453 [3] = assay: as above
Summary of the method: as §1

BT-549 [4] = assay: as above
Summary of the method: as §1

BT-474 [5] = assay: drug sensitivity score (DSS), CellTox Green (DSS (AUC-based score)); higher = stronger drug effect (viability inhibition or cytotoxicity); extreme values may be limits of the assay
Summary of the method: (§2)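 A drug sensitivity score was derived from the area under each fitted dose-response curve. Breast cancer cells (20 µl suspension) were seeded onto compound in 384-well plates, using 5 concentrations 10-fold apart over a compound-specific 10,000-fold range, and incubated 72 h. Readouts were CellTox Green fluorescence and then CellTiter-Glo luminescence, with every plate normalised to 0.1 % DMSO and a positive kill control.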

CAL-148 [6] = assay: as above
Summary of the method: as §2

Hs578T [7] = assay: as above
Summary of the method: as §2

HCC1143 [8] = assay: as above
Summary of the method: as §2

MDA-MB-231 [9] = assay: as above
Summary of the method: as §2

HCC1937 [10] = assay: as above
Summary of the method: as §2

CAL-85-1 [11] = assay: as above
Summary of the method: as §2

BT-474 [12] = assay: normalised viability (% of control), CellTiter-Blue; higher = more viable cells (about 100 = DMSO control)
Protocol: (§3)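 DSRT, CellTiter-Blue viability, 72 h incubation. Signal is normalised to DMSO and benzethonium chloride controls. Value is the normalised response at dose 3.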

CAL-148 [13] = assay: as above
Protocol: as §3

DU-4475 [14] = assay: as above; remark: listed apart in the source
Protocol: as §3

MDA-MB-436 [15] = assay: as above; remark: listed apart in the source
Protocol: as §3

Hs578T [16] = assay: as above
Protocol: as §3

CAL-51 = assay: as above
Protocol: as §3

MDA-MB-453 [17] = assay: as above; remark: listed apart in the source
Protocol: as §3

HCC1143 [18] = assay: as above
Protocol: as §3

HDQ-P1 = assay: as above
Protocol: as §3

SK-BR-3 = assay: as above
Protocol: as §3

MDA-MB-231 [19] = assay: as above
Protocol: as §3

MDA-MB-468 = assay: as above
Protocol: as §3

MFM-223 = assay: as above
Protocol: as §3

HCC1937 [20] = assay: as above
Protocol: as §3

CAL-120 = assay: as above
Protocol: as §3

BT-549 [21] = assay: as above; remark: listed apart in the source
Protocol: as §3

HCC1599 = assay: as above
Protocol: as §3

CAL-85-1 [22] = assay: as above
Protocol: as §3

CNCc1ccc(-c2[nH]c3cc(F)cc4c3c2CCNC4=O)cc1 [Rucaparib]
Conditions	normalised viability [%]
BT-474 [12], 100 nM	100
BT-549 [4], 10 nM	100
BT-549 [4], 1000 nM	107
BT-549 [4], 10000 nM	93.8
BT-549 [21], 100 nM	112
CAL-51, 10 nM	114
CAL-85-1 [22], 10 nM	87.6
CAL-120, 100 nM	93.3
CAL-148 [13], 10 nM	83.4
DU-4475 [1], 3 nM	84
DU-4475 [1], 30 nM	96.6
DU-4475 [1], 100 nM	83
DU-4475 [14], 10 nM	106
HCC1143 [18], 100 nM	110
HCC1599, 100 nM	114
HCC1937 [20], 100 nM	85.9
HDQ-P1, 10 nM	109
Hs578T [16], 100 nM	75.2
MDA-MB-231 [19], 100 nM	98
MDA-MB-436 [2], 10 nM	103
MDA-MB-436 [2], 1000 nM	62.6
MDA-MB-436 [2], 10000 nM	98.2
MDA-MB-436 [15], 100 nM	129
MDA-MB-453 [3], 3 nM	111
MDA-MB-453 [3], 30 nM	89.3
MDA-MB-453 [3], 100 nM	110
MDA-MB-453 [17], 10 nM	98.8
MDA-MB-468, 100 nM	110
MFM-223, 100 nM	109
SK-BR-3, 100 nM	76.4

Conditions	drug sensitivity score
BT-474 [5]	0
CAL-85-1 [11]	0
CAL-148 [6]	0
HCC1143 [8]	0
HCC1937 [10]	0
Hs578T [7]	1.33
MDA-MB-231 [9]	0

CN[C@@H]1C[C@H]2O[C@@](C)([C@@H]1OC)n1c3ccccc3c3c4c(c5c6ccccc6n2c5c31)C(=O)N[C@H]4O [UCN-01]
Conditions	normalised viability [%]
BT-474 [12], 100 nM	94.6
BT-549 [4], 10 nM	91.4
BT-549 [4], 1000 nM	11.8
BT-549 [4], 10000 nM	0.77
BT-549 [21], 100 nM	52.3
CAL-51, 10 nM	97.5
CAL-85-1 [22], 10 nM	86.9
CAL-120, 100 nM	30.4
CAL-148 [13], 10 nM	98.5
DU-4475 [1], 3 nM	109
DU-4475 [1], 30 nM	81.5
DU-4475 [1], 100 nM	78.3
DU-4475 [14], 10 nM	101
HCC1143 [18], 100 nM	50.2
HCC1599, 100 nM	56.3
HCC1937 [20], 100 nM	42
HDQ-P1, 10 nM	72.9
Hs578T [16], 100 nM	14.4
MDA-MB-231 [19], 100 nM	37
MDA-MB-436 [2], 10 nM	110
MDA-MB-436 [2], 1000 nM	47.8
MDA-MB-436 [2], 10000 nM	12.8
MDA-MB-436 [15], 100 nM	75.1
MDA-MB-453 [3], 3 nM	98
MDA-MB-453 [3], 30 nM	86.8
MDA-MB-453 [3], 100 nM	65
MDA-MB-453 [17], 10 nM	106
MDA-MB-468, 100 nM	56.2
MFM-223, 100 nM	66.9
SK-BR-3, 100 nM	44.2

Conditions	drug sensitivity score
BT-474 [5]	7.59
CAL-85-1 [11]	20.2
CAL-148 [6]	3.4
HCC1143 [8]	8.74
HCC1937 [10]	0
Hs578T [7]	17.7
MDA-MB-231 [9]	19

CO[C@H]1/C=C\C=C(/C)C(=O)NC2=CC(=O)C(NCCN(C)C)=C(C[C@@H](C)C[C@H](OC)[C@H](O)[C@@H](C)/C=C(\C)[C@@H]1OC(N)=O)C2=O [Alvespimycin]
Conditions	normalised viability [%]
BT-474 [12], 10 nM	92.1
BT-549 [4], 1 nM	104
BT-549 [4], 100 nM	33.5
BT-549 [4], 1000 nM	21.2
BT-549 [21], 10 nM	43.2
CAL-51, 1 nM	90
CAL-85-1 [22], 1 nM	97.2
CAL-120, 10 nM	86.3
CAL-148 [13], 1 nM	109
DU-4475 [1], 0.3 nM	99
DU-4475 [1], 3 nM	93.1
DU-4475 [1], 10 nM	84.5
DU-4475 [14], 1 nM	105
HCC1143 [18], 10 nM	86.1
HCC1599, 10 nM	77
HCC1937 [20], 10 nM	55.9
HDQ-P1, 1 nM	112
Hs578T [16], 10 nM	51.5
MDA-MB-231 [19], 10 nM	97.2
MDA-MB-436 [2], 1 nM	90.9
MDA-MB-436 [2], 100 nM	28.9
MDA-MB-436 [2], 1000 nM	20.4
MDA-MB-436 [15], 10 nM	74.9
MDA-MB-453 [3], 0.3 nM	115
MDA-MB-453 [3], 3 nM	87.4
MDA-MB-453 [3], 10 nM	61.7
MDA-MB-453 [17], 1 nM	93.4
MDA-MB-468, 10 nM	102
MFM-223, 10 nM	58.3
SK-BR-3, 10 nM	51.5

Conditions	drug sensitivity score
BT-474 [5]	4.58
CAL-85-1 [11]	6.41
CAL-148 [6]	9.12
HCC1143 [8]	9.99
HCC1937 [10]	1.6
Hs578T [7]	7.05
MDA-MB-231 [9]	7.29
